Assay [1] relates to Schistosoma mansoni. The assay is described as follows: Effect on the carbachol-induced paralytic response on Schistosoma mansoni at 10E-4 (phosphonium treated). Also noted: unit not given here. It is filed as functional.
The subject of assay [2] is Schistosoma mansoni. The assay is described as follows: Probability that there was effect on carbachol response. It is filed as functional.
For assay [3], the system named is Schistosoma mansoni. The assay is described as follows: Percentage reduction in carbachol response on Schistosoma mansoni. Type of assay: functional.
The test system of assay [4] is Schistosoma mansoni. The assay is described as follows: Probability that the compound had no effect on carbachol response; NS = no significant. It is filed as functional, organism-based.

Consider `BrCCC[P+](c1ccccc1)(c1ccccc1)c1ccccc1.[Br-]`, for which the Activity in the assay on Schistosoma mansoni [1] was -35. The Probability with Schistosoma mansoni [2] is given as less than 0.01. In the assay with Schistosoma mansoni [3], this molecule displayed a Reduction of 45.3%.

In the assay with Schistosoma mansoni [1], `[Br-].c1ccc(C[P+](c2ccccc2)(c2ccccc2)c2ccccc2)cc1` had an Activity of -55.1. The molecule further came in with a Probability in the assay on Schistosoma mansoni [2] of less than 0.05. For the same molecule, the Reduction in the assay with Schistosoma mansoni [3] was 27.1%.

`[Br-].[Br-].c1ccc([P+](CCC[P+](c2ccccc2)(c2ccccc2)c2ccccc2)(c2ccccc2)c2ccccc2)cc1` came in with an Activity in the assay on Schistosoma mansoni [1] of 2. The same molecule had a Probability in the assay on Schistosoma mansoni [2] of less than 0.001. For the same molecule, in the assay on Schistosoma mansoni [3], the Reduction was determined as 102.6%.

Consider `Br.Br.CCCCCCNCCC[PH](c1ccccc1)(c1ccccc1)c1ccccc1`, for which, in the assay on Schistosoma mansoni [1], the Activity was -35.4. The molecule also returned a Probability with Schistosoma mansoni [2] of less than 0.0001. Besides, the Reduction in the assay with Schistosoma mansoni [3] was determined as 62.4%.

With `Br.Br.CCCCCNCCC[PH](c1ccccc1)(c1ccccc1)c1ccccc1`, the Activity with Schistosoma mansoni [1] is on record as -31.8. In the assay on Schistosoma mansoni [2], this molecule returned a Probability of less than 0.001. The molecule also gave a Reduction with Schistosoma mansoni [3] of 58.2%.

With `N#CCCC[P+](c1ccccc1)(c1ccccc1)c1ccccc1.[Br-]`, the Probability entry in the assay on Schistosoma mansoni [4] was “No significance”. The molecule also yielded an Activity in the assay on Schistosoma mansoni [1] of -73. The molecule further came in with a Reduction in the assay on Schistosoma mansoni [3] of 10.3%.

`Br.Br.CCNCCC[PH](c1ccccc1)(c1ccccc1)c1ccccc1` registered an Activity in the assay with Schistosoma mansoni [1] of -72. In the assay with Schistosoma mansoni [2], this molecule yielded a Probability of less than 0.05. Also, the Reduction in the assay with Schistosoma mansoni [3] came out at 18.6%.

`[Br-].[Br-].c1ccc([P+](CC[P+](c2ccccc2)(c2ccccc2)c2ccccc2)(c2ccccc2)c2ccccc2)cc1`: the Activity in the assay with Schistosoma mansoni [1] is 13.3. The same molecule returned a Probability with Schistosoma mansoni [2] of less than 0.001. In addition, in the assay on Schistosoma mansoni [3], the Reduction turned out to be 117.8%.

With `CC[P+](c1ccccc1)(c1ccccc1)c1ccccc1.[Br-]` [ETHYLTRIPHENYLPHOSPHONIUM BROMIDE], the Activity with Schistosoma mansoni [1] was -63.8. This molecule registered a Probability in the assay on Schistosoma mansoni [2] of less than 0.02. In the assay on Schistosoma mansoni [3], this molecule yielded a Reduction of 27%.

On to `Br.Br.NCCCCC[PH](c1ccccc1)(c1ccccc1)c1ccccc1`, for which the Activity with Schistosoma mansoni [1] is recorded as -81.3. The Probability with Schistosoma mansoni [2] is less than 0.05. Besides, in the assay on Schistosoma mansoni [3], the Reduction turned out to be 13.1%.

Regarding `[Br-].[Br-].c1ccc([P+](CCCCCC[P+](c2ccccc2)(c2ccccc2)c2ccccc2)(c2ccccc2)c2ccccc2)cc1`, in the assay with Schistosoma mansoni [1], the Activity was -4.6. The Probability with Schistosoma mansoni [2] was less than 0.001. The molecule also came in with a Reduction in the assay with Schistosoma mansoni [3] of 94.3%.

For `Br.Br.CCCNCCC[PH](c1ccccc1)(c1ccccc1)c1ccccc1`, the Probability entry with Schistosoma mansoni [4] was “No significance”. Besides, the Activity with Schistosoma mansoni [1] is -71.7. The Reduction with Schistosoma mansoni [3] came out at 0.97%.

Take `Br.Br.NCC[PH](c1ccccc1)(c1ccccc1)c1ccccc1`: the Probability entry with Schistosoma mansoni [4] was “No significance”. In the assay on Schistosoma mansoni [1], this molecule returned an Activity of -67.8. The same molecule registered a Reduction in the assay on Schistosoma mansoni [3] of 14.6%.

Molecule `Br.Br.CCCCNCCC[PH](c1ccccc1)(c1ccccc1)c1ccccc1` returned an Activity with Schistosoma mansoni [1] of -70.3. The Probability in the assay with Schistosoma mansoni [2] is given as less than 0.001. In the assay with Schistosoma mansoni [3], this molecule yielded a Reduction of 22.8%.

Consider `[Br-].[Br-].c1ccc([P+](CCCCC[P+](c2ccccc2)(c2ccccc2)c2ccccc2)(c2ccccc2)c2ccccc2)cc1`, for which the Activity with Schistosoma mansoni [1] is recorded as -19.7. Moreover, the Probability with Schistosoma mansoni [2] was less than 0.001. In addition, in the assay with Schistosoma mansoni [3], the Reduction is recorded as 76.1%.

Values taken from ChEMBL document CHEMBL1121488, “Effects of phosphonium compounds on Schistosoma mansoni” (1980).
